Measured values published in patent US11311043B2, “Preparation of glucan-based shell-core structure carrier material and its application thereof” (Jiangnan University, priority 2018, dated 2022).

Assays:
Intestinal cell = Intestinal cell experiment: hydrogen peroxide irritation, cell activity by MTT method; type: cell-based; conditions: 2 mM hydrogen peroxide for 2 h, then cultured 4 h
Method: Cell experiment: Intestinal cell experiment is performed on a carrying complex. 100 μL of a carrying material-nutritional factor complex dissolved solution is added to a cell culture solution, 2 mM of a hydrogen peroxide solution is added for irritating cells for 2 h, and the cells are continued to be cultured for 4 h. Cell activity is detected by an MTT method.

[1] = Biological stability by oxidation rate POV (potassium thiocyanate peroxide value method); type: physicochemical; conditions: conjugated linoleic acid carried; stability from maximum peroxide value (POV)
Method: To better realize the present invention, biological stability is characterized by determining the oxidation rate POV (peroxide value) by applying a potassium thiocyanate POV determining method. POV is calculated through the formula below: […]
c and c0 are the mass of iron in a test sample and a blank sample; m is the mass of CLA; 2 is a conversion factor; and 55.84 is the relative atomic mass of iron. The degree of oxidation of pure nutritional factors serves as control, and the maximum values of the amount of peroxide (POV) in the control and the material are calculated and compared. POV is the amount of peroxide in a first stage product obtained after fat oxidation. Because it cannot be excluded that a small amount of peroxide continues to decompose into small molecular substances under an oxidizing environment, the stability is characterized by: Stability[…](100−100 g CLA maximum value of the amount of peroxide generated by oxidation)/100*100%.

Biological stability [1]	Compound	Cell activity % (Intestinal cell; 1 μg/ml)	Cell activity % (Intestinal cell; 10 μg/ml)
	COC1=C(OC)C(=O)C(C/C=C(\C)CC/C=C(\C)CC/C=C(\C)CC/C=C(\C)CC/C=C(\C)CC/C=C(\C)CC/C=C(\C)CC/C=C(\C)CC/C=C(\C)CCC=C(C)C)=C(C)C1=O [Coenzyme Q10, coenzyme Q10]	92 ± 3.4%	97 ± 2.6%
58.2%	conjugated linoleic acid [Control 1]		
